For 32 compounds, IC50 results are on record in US11306078B2, “Piperidine CXCR7 receptor modulators” (IDORSIA PHARMACEUTICALS LTD., priority 2016, dated 2022).

human chemokine receptor CXCR7, sequence (P25106 whole entry): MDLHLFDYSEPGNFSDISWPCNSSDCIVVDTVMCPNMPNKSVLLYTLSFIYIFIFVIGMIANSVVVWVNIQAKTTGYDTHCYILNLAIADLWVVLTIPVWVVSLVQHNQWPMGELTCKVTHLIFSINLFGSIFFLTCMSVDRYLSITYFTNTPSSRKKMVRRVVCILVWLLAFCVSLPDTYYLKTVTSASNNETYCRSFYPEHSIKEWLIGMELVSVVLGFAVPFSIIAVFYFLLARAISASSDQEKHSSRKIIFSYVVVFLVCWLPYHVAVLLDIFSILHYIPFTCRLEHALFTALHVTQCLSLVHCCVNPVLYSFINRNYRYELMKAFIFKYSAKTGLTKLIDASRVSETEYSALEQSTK

The first assay has as its target human chemokine receptor CXCR7 (Homo sapiens (Human), UniProt P25106). Kind of assay: Tango CXCR7-bla U2OS beta-arrestin recruitment assay (beta-lactamase reporter, FRET), antagonism of CXCL12/SDF1-α.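 Note: compounds preincubated 15 min before CXCL12 addition, then 22 h at 37 °C, FRET emission ratio read with CCF4-AM substrate after 2 h.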 Particulars: antagonistic effect on CXCR7; Tango CXCR7-bla U2OS cells, CXCL12/SDF1-α at its EC80. The format is cell-based. On the technique in general: Activated receptors often draw arrestin, which recruitment assays turn into a signal.
By IC50 is commonly meant the concentration that gives 50% inhibition. Lower therefore signals higher potency. For the compound `C[C@@H](NC(=O)[C@@H]1CN(CC2CC2)CC[C@H]1NC(=O)c1cc(-c2c(F)cc(F)cc2F)on1)C1CCC1` (single isomer, unassigned) [Example 1.139a, (3R*,4R*)-1-Cyclopropylmethyl-4-{[5-(2,4,6-trifluoro-phenyl)-isoxazole-3-carbonyl]-amino}-piperidine-3-carboxylic acid ((R)-1-cyclobutyl-ethyl)-amide], the IC50 was 0.79 µM.
On the same count and under the same terms, with `CCN1CC[C@H](NC(=O)c2cc(-c3ccc(F)cc3F)on2)[C@@H](C(=O)NC(C)(C)c2ncccn2)C1` [Example 4.096] the figure was 0.033 µM.
`C[C@@H](NC(=O)[C@@H]1CN(CC2CC2)CC[C@H]1NC(=O)c1cc(-c2c(F)cc(F)cc2F)on1)C1CCC1` (single isomer, unassigned) [Example 1.139b, (3R*,4R*)-1-Cyclopropylmethyl-4-{[5-(2,4,6-trifluoro-phenyl)-isoxazole-3-carbonyl]-amino}-piperidine-3-carboxylic acid ((R)-1-cyclobutyl-ethyl)-amide] gave an IC50 of 0.029 µM.
Take `CN(C)C(=O)[C@@H]1CN(Cc2ccccc2Cl)CC[C@H]1NC(=O)c1cc(-c2ccc(F)cc2F)on1` [Example 2.082]: inhibition was half-maximal at 0.342 µM (IC50).
Still for that read-out and setting: next, `O=C(N[C@H]1CCN(C2CCC2)C[C@@H]1C(=O)NC1(c2ncccn2)CC1)c1ncc(-c2ccc(F)cc2F)o1` [Example 2.097]: 0.65 µM.
The compound `N#CC1(NC(=O)[C@@H]2CN(C3CCCC3)CC[C@H]2NC(=O)c2cc(-c3ccc(F)cc3F)on2)CCC1` [Example 2.064] yielded an IC50 of 0.084 µM.
The same measure, in the same setting: with `O=C(N[C@H]1CCN(CC2CC2)C[C@@H]1C(=O)NC1(c2ncccn2)CC1)c1ncc(-c2ccc(F)cc2F)o1` [Example 7.011, (3S,4S)-1-Cyclopropylmethyl-4-{[5-(2,4-difluoro-phenyl)-oxazole-2-carbonyl]-amino}-piperidine-3-carboxylic acid (1-pyrimidin-2-yl-cyclopropyl)-amide] the figure was 0.078 µM; with `O=C(N[C@@H]1CCN(CC2CC2)C[C@H]1C(=O)NC1(c2ncccn2)CC1)c1cc(-c2cccc(C(F)(F)F)c2)on1` (single isomer, unassigned) [Example 1.193a, (3R,4R)-1-Cyclopropylmethyl-4-{[5-(3-trifluoromethyl-phenyl)-isoxazole-3-carbonyl]-amino}-piperidine-3-carboxylic acid (1-pyrimidin-2-yl-cyclopropyl)-amide or (3S,4S)-1-cyclopropylmethyl-4-{[5-(3-trifluoromethyl-phenyl)-isoxazole-3-carbonyl]-amino}-piperidine-3-carboxylic acid (1-pyrimidin-2-yl-cyclopropyl)-amide], 0.097 µM; with `CN(C)C(=O)[C@@H]1CN(C2CCC(C)(C)C2)CC[C@H]1NC(=O)c1cc(-c2ccc(F)cc2F)on1` (some centres unmarked) [Example 2.018], 0.145 µM.
Regarding `O=C(N[C@H]1CCN(CC2CC2)C[C@@H]1C(=O)NC1(c2ncccn2)CC1)c1ncc(-c2ccc(F)cc2)o1` [Example 7.007, (3S,4S)-1-Cyclopropylmethyl-4-{[5-(4-fluoro-phenyl)-oxazole-2-carbonyl]-amino}-piperidine-3-carboxylic acid (1-pyrimidin-2-yl-cyclopropyl)-amide], half-maximal inhibition (IC50) was put at 0.14 µM.
On the same count and under the same terms, next, `O=C(N[C@@H]1CCN(CC2CC2)C[C@H]1C(=O)N1CC[C@@H]1c1ncccn1)c1cc(-c2ccc(F)cc2F)on1` [Example 4.079b]: 0.018 µM; `O=C(N[C@@H]1CCN(CC2CC2)C[C@H]1C(=O)NC1(c2ncccn2)CC1)c1cc(-c2c(F)cccc2F)on1` (racemic) [Example 1.191, rac-(3R*,4R*)-1-Cyclopropylmethyl-4-{[5-(2,6-difluoro-phenyl)-isoxazole-3-carbonyl]-amino}-piperidine-3-carboxylic acid (1-pyrimidin-2-yl-cyclopropyl)-amide]: 0.186 µM; `O=C(N[C@H]1CCN(CC2(F)CC2)C[C@@H]1C(=O)NC1(c2ncccn2)CC1)c1nnc(-c2ccc(F)cc2F)s1` [Example 2.106]: 0.013 µM.
Same read-out and setting: next, `CCN(CC)C(=O)[C@@H]1CN(CC2CC2)CC[C@H]1NC(=O)c1cc(-c2ccc(F)cc2F)on1` [Example 4.071]: 0.212 µM.
`CN(C)C(=O)[C@@H]1CN(C2CCCC2)CC[C@H]1NC(=O)c1cc(-c2c(F)cc(F)cc2F)on1` (racemic) [Example 1.099, rac-(3R*,4R*)-1-Cyclopentyl-4-{[5-(2,4,6-trifluoro-phenyl)-isoxazole-3-carbonyl]-amino}-piperidine-3-carboxylic acid dimethylamide]: the IC50 was 0.131 µM.
Same read-out and setting: next, `C[C@@H](NC(=O)[C@@H]1CN(CC2CC2)CC[C@H]1NC(=O)c1cc(-c2ccc(F)cc2F)no1)c1cnccn1` (relative stereo) [Example 1.159, (3R*,4R*)-1-Cyclopropylmethyl-4-{[3-(2,4-difluoro-phenyl)-isoxazole-5-carbonyl]-amino}-piperidine-3-carboxylic acid ((R)-1-pyrazin-2-yl-ethyl)-amide]: 0.818 µM; `CC(C)N(CCOCCO)C(=O)[C@@H]1CN(C2CCCCC2)CC[C@H]1NC(=O)c1cc(-c2ccc(F)cc2F)on1` (racemic) [Example 1.055, rac-(3R*,4R*)-1-Cyclohexyl-4-{[5-(2,4-difluoro-phenyl)-isoxazole-3-carbonyl]-amino}-piperidine-3-carboxylic acid [2-(2-hydroxy-ethoxy)-ethyl]-isopropyl-amide]: 0.232 µM; `COCCC(C)(C)NC(=O)[C@H]1CN(C2CCCCC2)CC[C@@H]1NC(=O)c1cc(-c2ccc(F)cc2F)on1` [Example 4.003]: 0.333 µM.
Same read-out and setting: next, `CC(C)CCN1CC[C@@H](NC(=O)c2cc(-c3ccc(F)cc3F)on2)[C@H](C(=O)N(C)C)C1` [Example 2.021]: 0.293 µM; `Cc1nc(C(C)(C)NC(=O)[C@H]2CN(CC3CC3)CC[C@@H]2NC(=O)c2cc(-c3ccc(F)cc3F)on2)no1` [Example 4.044]: 0.075 µM.
Same read-out and setting: next, `Cc1csc(CNC(=O)[C@@H]2CN(C3CCCCC3)CC[C@H]2NC(=O)c2cc(-c3ccc(F)cc3F)on2)n1` (racemic) [Example 1.068, rac-(3R*,4R*)-1-Cyclohexyl-4-{[5-(2,4-difluoro-phenyl)-isoxazole-3-carbonyl]-amino}-piperidine-3-carboxylic acid (4-methyl-thiazol-2-ylmethyl)-amide]: 0.512 µM.
`CC(C)CN1CC[C@H](NC(=O)c2cc(-c3ccc(F)cc3F)on2)[C@@H](C(=O)NC2(c3ncccn3)CC2)C1` [Example 2.07] showed an IC50 of 0.011 µM.
Take `C[C@@H](NC(=O)[C@H]1CN(CC2CC2)CC[C@@H]1NC(=O)c1cc(-c2ccc(F)cc2F)on1)c1cccc(Br)c1` [Example 4.075]: inhibition was half-maximal at 0.002 µM (IC50).
The same measure, in the same setting: with `O=C(N[C@H]1CCN(C2CCCC2)C[C@@H]1C(=O)NC1(c2cccnn2)CC1)c1cc(-c2ccc(F)cc2F)on1` [Example 1.182, (3S,4S)-1-Cyclopentyl-4-{[5-(2,4-difluoro-phenyl)-isoxazole-3-carbonyl]-amino}-piperidine-3-carboxylic acid (1-pyridazin-3-yl-cyclopropyl)-amide] the figure was 0.218 µM; with “(3R*,4R*)-1-Cyclopentyl-4-{[1-(2,4-difluoro-phenyl)-1H-[1,2,3]triazole-4-carbonyl]-amino}-piperidine-3-carboxylic acid ((1S*,2R*)-2-phenyl-cyclopropyl)-amide and (3R*,4R*)-1-Cyclopentyl-4-{[1-(2,4-difluoro-phenyl)-1H-[1,2,3]triazole-4-carbonyl]-amino}-piperidine-3-carboxylic acid ((1R*,2S*)-2-phenyl-cyclopropyl)-amide [Example 1.146]”, 0.904 µM; with `O=C(N[C@@H]1CCN(CC2CC2)C[C@H]1C(=O)NC1(c2ncccn2)CC1)c1cc(-c2c(F)cc(F)cc2F)on1` (single isomer, unassigned) [Example 3.020a, (3R*,4R*)-1-Cyclopropylmethyl-4-{[5-(2,4,6-trifluoro-phenyl)-isoxazole-3-carbonyl]-amino}-piperidine-3-carboxylic acid (1-pyrimidin-2-yl-cyclopropyl)-amide], 0.271 µM.
As to `CC(NC(=O)[C@H]1CN(C2CCCC2)CC[C@@H]1NC(=O)c1cc(-c2ccc(F)cc2F)on1)c1ccon1` (some centres unmarked) [Example 4.04], inhibition was half-maximal at 0.086 µM (IC50).
`O=C(N[C@H]1CCN(C2CCCCC2)C[C@@H]1C(=O)NC1(c2ccc(F)cn2)CC1)c1cc(-c2ccc(F)cc2F)on1` [Example 4.004] yielded an IC50 of 0.319 µM.
As for `CN(C)C(=O)[C@@H]1CN(CC2CC2)CC[C@H]1NC(=O)c1cc(-c2ccc(F)cc2F)on1` [Example 2.029], the half-inhibitory concentration (IC50) is 0.06 µM.
`Cc1ncsc1CNC(=O)[C@@H]1CN(C2CCCCC2)CC[C@H]1NC(=O)c1cc(-c2ccc(F)cc2F)on1` (racemic) [Example 1.033, rac-(3R*,4R*)-1-Cyclohexyl-4-{[5-(2,4-difluoro-phenyl)-isoxazole-3-carbonyl]-amino}-piperidine-3-carboxylic acid (4-methyl-thiazol-5-ylmethyl)-amide] yielded an IC50 of 0.591 µM.
The same measure, in the same setting: next, `COc1cccc(C2(NC(=O)[C@H]3CN(CC4CC4)CC[C@@H]3NC(=O)c3cc(-c4ccc(F)cc4F)on3)CC2)c1` [Example 4.059]: 0.061 µM.

The same assay, now with this note: antagonistic effect on CXCR7; Tango CXCR7-bla U2OS cells; CXCL12/SDF1-α at its EC80; geometric mean.
`O=C(N[C@@H]1CCN(CC2CC2)C[C@H]1C(=O)NC1(c2ncccn2)CC1)c1cc(C2CC2)on1` (single isomer, unassigned) [Reference Compound 1a, (3R,4R)-4-[(5-Cyclopropyl-isoxazole-3-carbonyl)-amino]-1-cyclopropylmethyl-piperidine-3-carboxylic acid (1-pyrimidin-2-yl-cyclopropyl)-amide or (3S,4S)-4-[(5-cyclopropyl-isoxazole-3-carbonyl)-amino]-1-cyclopropylmethyl-piperidine-3-carboxylic Acid (1-pyrimidin-2-yl-cyclopropyl)-amide, reference compound] showed an IC50 of over 10 µM.
